According to ChEMBL document CHEMBL1150988, “-lactam-recognizing enzymes exhibit different structural specificity in acyclic amide and ester substrates: a starting point in -lactamase evolution?” (Bioorg Med Chem Lett, 1994):
Several values for one entry are separate records, joined by “and”; a condition that tells them apart may be missing. Equal entries are not always repeated.

Assays:
Streptomyces [1] = test: Kcat against Streptomyces R61 DD-peptidase
Streptomyces [2] = test: Km against Streptomyces R61 DD-peptidase
[3] = Ratio for Kcat to Km against Streptomyces R61 DD-peptidase; design: unit not given here
[4] = Ratio for Kcat to Km was determined; design: unit not given here
[5] = molecular target: Beta-lactamase (Enterobacter cloacae) (UniProt P05364); test: Kcat against P99 beta-lactamase
Beta-lactamase (Enterobacter cloacae), sequence (P05364 21-381 limits assumed): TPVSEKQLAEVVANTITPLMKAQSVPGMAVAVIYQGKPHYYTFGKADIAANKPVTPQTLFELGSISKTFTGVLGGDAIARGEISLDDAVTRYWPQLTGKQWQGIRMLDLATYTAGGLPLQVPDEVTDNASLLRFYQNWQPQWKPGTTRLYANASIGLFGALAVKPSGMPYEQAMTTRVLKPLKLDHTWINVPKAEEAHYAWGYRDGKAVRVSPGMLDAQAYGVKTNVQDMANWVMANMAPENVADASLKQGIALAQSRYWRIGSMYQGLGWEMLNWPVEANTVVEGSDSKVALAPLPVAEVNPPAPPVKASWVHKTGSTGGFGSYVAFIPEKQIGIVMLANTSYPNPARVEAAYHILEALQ

C[C@H](NC(=O)Cc1ccccc1)C(=O)N[C@H](C)C(=O)O
k cat (Streptomyces [1]): 2 s⁻¹
Km (Streptomyces [2]): 7 mM
Ratio [3]: 286

CC(=O)NCCCC[C@H](NC(C)=O)C(=O)N[C@@H](C)C(=O)N[C@H](C)C(=O)O
k cat (Streptomyces [1]): 55 s⁻¹
Km (Streptomyces [2]): 10 mM and 7 mM
Ratio [3]: 5500 and 7890

CC(=O)NCCCC[C@H](NC(C)=O)C(=O)N[C@@H](C)C(=O)O[C@H](C)C(=O)O
k cat (Streptomyces [1]): 65.9 s⁻¹
Km (Streptomyces [2]): 50.6 mM
Ratio [4]: 2340
Ratio [3]: 1300
k cat [5]: 63 s⁻¹

CC(=O)NCCCC[C@H](NC(C)=O)C(=O)NCC(=O)S[C@H](C)C(=O)O
k cat (Streptomyces [1]): 11.9 s⁻¹
Km (Streptomyces [2]): 2 mM
Ratio [4]: 763
Ratio [3]: 5850
k cat [5]: 5.1 s⁻¹

C[C@@H](OC(=O)CNC(=O)Cc1ccccc1)C(=O)O
k cat (Streptomyces [1]): 4.3 s⁻¹
Km (Streptomyces [2]): 11.8 mM
Ratio [4]: 3390
Ratio [3]: 366
k cat [5]: 27.3 s⁻¹

CC(=O)NCCCC[C@H](NC(C)=O)C(=O)NCC(=O)N[C@H](C)C(=O)O
k cat (Streptomyces [1]): 0.019 s⁻¹
Km (Streptomyces [2]): 15 mM
Ratio [3]: 1.3

C[C@H](NC(=O)Cc1ccccc1)C(=O)O[C@H](C)C(=O)O
k cat (Streptomyces [1]): 24.6 s⁻¹
Km (Streptomyces [2]): 6.8 mM
Ratio [4]: 1240
Ratio [3]: 3630
k cat [5]: 29 s⁻¹

C[C@@H](SC(=O)CNC(=O)Cc1ccccc1)C(=O)O
k cat (Streptomyces [1]): 6.1 s⁻¹
Km (Streptomyces [2]): 0.63 mM
Ratio [4]: 6670
Ratio [3]: 9660
k cat [5]: 22 s⁻¹

CC(=O)NCCCC[C@H](NC(C)=O)C(=O)NCC(=O)O[C@H](C)C(=O)O
k cat (Streptomyces [1]): 10.4 s⁻¹
Km (Streptomyces [2]): 9.8 mM
Ratio [4]: 493
Ratio [3]: 1060
k cat [5]: 17.8 s⁻¹
